Measured values as given in patent US6828345B2, “O-substituted 6-methyltramadol derivatives” (Gruenenthal GmbH, priority 2000, dated 2004).

Experiments:
[1] = system: tail-flick pain latency in mice; experiment: Tail-flick (focussed beam) test on mice; type: in vivo, NMR mice; details: for ED50: Mus musculus
Text: The analgesic effectiveness of the compounds according to the invention was investigated by the focussed beam (tail-flick) test in mice according to the method developed by D'Amour and Smith (J. Pharmaceutical. Exp. Ther. 72, 74 79 (1941)). NMR mice weighing between 20 and 24 g were used for this purpose. The animals were placed individually in special test cages and the base of the tail was subjected to a focused beam of light from an electric lamp (tail-flick type 55/12/10.fl, Labtec, Dr Hess). The lamp intensity was adjusted so that the time from when the lamp was switched on to the sudden withdrawal of the tail (pain latency) was 3 to 5 seconds in the case of untreated animals. Before administration of a compound according to the invention the animals were pre-tested twice within 5 minutes and the mean value of these measurements was calculated as a pre-test mean value. The pain measurements were carried out 20, 40 and 60 minutes after intravenous administration. The analgesic action was calculated as the increase in the pain latency (% MPE) according to the following formula: […]
Here T0 is the latency time before application of the substance and T1 the latency time after application of the substance, and T2 is the maximum exposure time (12 sec).
In order to determine the dose dependence the respective compound according to the invention was applied in 3 to 5 logarithmically increasing doses that included in each case the threshold dose and the maximal effect dose, and the ED50 values were determined by means of regression analysis. The ED50 calculation was carried out at the effect maximum 20 minutes after intravenous administration of the substance.

[2] = system: phenylquinone-induced writhing reaction in mice; experiment: Phenylquinone-induced writhing test in mice; type: in vivo, Male NMRI mice; details: orally, phenylquinone i.p. 30 minutes after oral administration, writhing counted 5-20 minutes after phenylquinone; for ED50: Mus musculus, read-out: ED50 writhing inhibition
Experimental: The analgesic effectiveness of the compounds according to the invention was investigated in mice using the phenylquinone-induced writhing test as modified by I. C. Hendershot, J. Forsaith in J. Pharmacol. Exptl. Ther. 125, 237 (1959). Male NMRI mice weighing between 25 and 30 g were used for this purpose. Groups of 10 animals per substance dose received intraperitoneally 30 minutes after oral administration of a compound according to the invention, 0.3 ml per mouse of a 0.02% aqueous phenylquinone solution (phenylbenzoquinone, from Sigma, Deisenhofen; solution prepared by addition of 5% ethanol and storage in a water bath at 45° C.). The animals were then placed individually in observation cages. The number of pain-induced stretching movements (writhing reaction=contortion of the body accompanied by stretching of the rear extremities) was counted using a push-button counter 5-20 minutes after administration of the phenylquinone. The ED50 values (effective dose with 50% inhibition of the writhing reaction) were calculated with 95% level of confidence by means of regression analysis (evaluation program from Martens EDV-Service, Ekental) from the dose-dependent reduction in the writhing reaction compared to mice investigated in parallel to which only phenylquinone had been administered.

[3] = iv, 20 min, i.v., effect maximum 20 minutes after intravenous administration
[4] = i.v., effect maximum 20 minutes after intravenous administration

SMILES	ED50 [1, 3] [mg/kg]	ED50 writhing inhibition [2] [mg/kg]	also measured
C#COc1cccc(C2(O)C(C)CCCC2CN(C)C)c1 (stereo not drawn) [Example 19, 2-dimethylaminomethyl-1-(3-ethynyloxyphenyl)-6-methylcyclohexanol]	14.7		
COc1cccc(C2(O)C(C)CCCC2CN(C)C)c1 (stereo not drawn) [Example 5, 2-dimethylaminomethyl-1-(3-methoxyphenyl)-6-methylcyclohexanol]			ED50 [2]: 11 mg/kg; ED50 ([1]; po, orally (cell note)): 42.9 mg/kg
CC1CCCC(CN(C)C)C1(O)c1cccc(O)c1 (racemic) [Example 8, 3-(2-dimethylaminomethyl-1-hydroxy-6-methylcyclohexyl)-phenol]		14.0	
CCOc1cccc(C2(O)C(C)CCCC2CN(C)C)c1 (stereo not drawn) [Example 11, 2-dimethylaminomethyl-1-(3-ethoxyphenyl)-6-methylcyclohexanol]		21.6	
CC1CCCC(CN(C)C)C1(O)c1cccc(O)c1 (stereo not drawn) [Example 10, 3-(2-dimethylaminomethyl-1-hydroxy-6-methylcyclohexyl)-phenol]		5.3	ED50 tail-flick [1, 4]: 0.91 mg/kg
CC1CCCC(CN(C)C)C1(O)c1cccc(O)c1 (stereo not drawn) [Example 9, 3-(2-dimethylaminomethyl-1-hydroxy-6-methylcyclohexyl)-phenol]		19.8	ED50 tail-flick [1, 4]: 14.7 mg/kg
CCOc1cccc(C2(O)C(C)CCCC2CN(C)C)c1 (stereo not drawn) [Example 12, 2-dimethylaminomethyl-1-(3-ethoxyphenyl)-6-methylcyclohexanol]	13.4	4.39	
CC1CCCC(CN(C)C)C1(O)c1cccc(OC2CCC2)c1 (stereo not drawn) [Example 21, 1-(3-cyclobutoxyphenyl)-2-dimethylaminomethyl-6-methylcyclohexanol]	30		
COc1cccc(C2(O)C(C)CCCC2CN(C)C)c1 (stereo not drawn) [Example 6, 2-dimethylaminomethyl-1-(3-methoxyphenyl)-6-methylcyclohexanol]	7.73	6.58	
CCOc1cccc(C2(O)C(C)CCCC2CN(C)C)c1 (racemic) [Example 2, 2-dimethylaminomethyl-1-(3-ethoxyphenyl)-6-methylcyclohexanol]	11.9		
CC1CCCC(CN(C)C)C1(O)c1cccc(O)c1 (racemic) [Example 3, 3-(2-dimethylaminomethyl-1-hydroxy-6-methyl-cyclohexyl)phenol]	2.15	2.09	
CC1CCCC(CN(C)C)C1(O)c1cccc(OCC2CCC2)c1 (stereo not drawn) [Example 16, 1-(3-cyclobutylmethoxyphenyl)-2-dimethylaminomethyl-6-methylcyclohexanol]	21.5		ED50 [2]: 32.8 mg/kg
COc1cccc(C2(O)C(C)CCCC2CN(C)C)c1 (racemic) [Example 1, 2-dimethylaminomethyl-1-(3-methoxyphenyl)-6-methylcyclohexanol]	5.6		
CC1CCCC(CN(C)C)C1(O)c1cccc(OC2CCCC2)c1 (stereo not drawn) [Example 14, 1-(3-cyclopentyloxyphenyl)-2-dimethylaminomethyl-6-methylcyclohexanol]	20		ED50 [2]: 26.2 mg/kg
C=CCOc1cccc(C2(O)C(C)CCCC2CN(C)C)c1 (racemic) [Example 4, 1-(3-allyloxyphenyl)-2-dimethylaminomethyl-6-methylcyclohexanol]	20.2		ED50 [2]: 9.38 mg/kg
